# Data: patent US20190269596A1, “COSMETIC USE AND METHOD FOR IMPROVING PHYSIOLOGICAL FUNCTIONS OF THE SKIN BY INCREASING THE EXPRESSION OF UBIAD1” (ISP Investments LLC, priority 2016, published 2019)
# Where no end group is shown, it is not given here.
# Experiments:
# Type in all cases: cell-based, human
# [1] = system: keratinocytes; experiment: Transmission electron microscopy of peptide-treated keratinocytes; details: cultured keratinocytes, peptide 1 tLM, 48 hours
# Experimental: (§1) Normal human epithelial keratinocytes were isolated from skin obtained from plastic surgery of healthy females who had given written informed consent. Keratinocytes were cultured in keratinocyte serum free medium, with provided human recombinant epidermal growth factor and bovine pituitary extract (Gibco, Auckland, NZ), and 0.1 mg/ml Primocin™ (Invivogen, San Diego, Calif., USA).
# Cultured keratinocytes, treated with the peptide at 1 tLM concentration for 48 hours were fixed in Karnovsky's solution (Emsdiasum, Hatfield, Pa., USA) for 1 h at room temperature, and left for 12 h at 4° C. Cells were then carefully scrapped off the petridish, pelleted with a brief centrifugation, and washed with 0.1 M sodium cacodylate buffer. Pellets were routinely osmicated, dehydrated in a graded series of ethanol, and infiltrated with; and embedded in, a low viscocity epon-epoxy resin. Ultrathin sections of silver-gray interference color were cut and double-stained with uranyl acetate and lead citrate and then examined in a Zeiss 10 transmission electron microscope. Microphotographs were taken with a Gatan digital camera (Gatan, Pleasanton, Calif., USA).
# [2] = system: Ubiad1; experiment: qPCR of Ubiad1 mRNA expression in keratinocytes; details: skin keratinocytes, 1 μM (1%) Ubiad1 inducer peptide
# Experimental: as §1
# Total RNA was extracted using mirVana miRNA isolation kit according to the manufacturer's instructions (Ambion, Austin, Tex., USA). Total RNA was reverse transcribed with the high capacity cDNA reverse transcription kit (Applied Biosystems, Branchburg, N.J., USA). Real-time polymerase chain reaction was performed according to the Taqman method, using the TaqMan Universal PCR Master Mix (Applied Biosystems) with the StepOnePlus Real-time PCR System (Applied Biosystems). Relative expression levels of each target gene were calculated according to the delta-delta-CT method.
# [3] = system: keratinocytes; experiment: Lipid peroxidation (C11-BODIPY) in keratinocytes exposed to cumene hydroperoxide; details: keratinocytes exposed 1 hour to 200 μM cumene hydroperoxide, peptide-treated
# Experimental: (C) Lipid peroxidation in keratinocyte exposed 1 hour to 200 μM cumene hydroperoxide (reduced BODIPY in red; oxidized BODIPY in green) (×20 objective lens, scale bar=31 μm).
# (§2) (D) Lipid peroxidation quantification graph with One-Way Analysis of Variance, displaying confidence interval means diamonds (green). The line across each diamond represents the group mean. The vertical span of each diamond represents the 95% confidence interval for each group. Grand sample mean is represented by a horizontal black line.
# (§3) Primary antibodies used were anti-Ubiad1 (sc-377013, Santa Cruz Biotechnology, Heidelberg, Gennany), anti-Giantin (ab24586, Abcamn, Cambridge, UK), anti-3-Nitrotyrosine (ab61392, Abcam). Alexa Fluor® coupled secondary antibodies were used (Molecular Probes, Eugene, Oreg., USA). Alexa Fluor® 594 Phalloidin probe were used for F-actin detection (A12381, molecular Probes). CellROX Green probe was used for monitoring intracellular ROS (C10444, molecular Probes). C11-BODIPY (581/591) was used for monitoring lipid peroxidation (C10445, Molecular Probes). […]
# (§4) All experiments have been repeated, the quantification of the fluorescence was performed by measuring the fluorescent intensity of the staining, which was normalized by cell area. Lipid peroxidation in cells was quantified according to manufacturer guideline with the ratios of the signal from the 590 to 510 channels. […]
# [4] = system: Ubiad1; experiment: Immunoblotting of Ubiad1 in keratinocytes; details: skin keratinocytes, 1 μM (1%) Ubiad1 inducer peptide
# Experimental: as §1
# Keratinocytes were lysed in RIPA buffer (Thermo Scientific, Rockford, Ill., USA), containing protease inhibitor cocktail and EDTA (Thermo Scientific). The protein concentration was determined using the BCA Protein Assay Kit (Thermo Scientific) and equal amounts of total protein were loaded on a 4 to 12% NuPAGE Bis-Tris Gel (Invitrogen) and transferred onto a nitrocellulose membranes using the iBlot dry blotting system (Invitrogen). Non specific binding sites were blocked, and membranes were then labeled with appropriate antibodies and developed using the SuperSignal West Femto Maximum Sensitivity Substrate kit (Thermo Scientific).
# [5] = system: keratinocytes; experiment: Cellular ROS measurement with CellROX green in keratinocytes exposed to cumene hydroperoxide; details: keratinocytes exposed 1 hour to 200 μM cumene hydroperoxide, peptide-treated
# Experimental: (A) Cellular ROS measurement in keratinocyte exposed 1 hour to 200 μM cumene hydroperoxide using the CellIROX green assay (×20 objective lens, scale bar=31 μm).
# as §2, with “(B) CellROX” for “(D) Lipid peroxidation”
# as §3, §4
substance,measurement,setting,value
"Ala-Val-Leu-Ala-Gly-NH2 (AVLAG-NH2) [Ubiad1 inducer peptide, artificially synthesized Ubiad1 inducer peptide]",cell morphology: mitochondrial and Golgi content of the cells,[1],large scale increase in the mitochondrial and Golgi content of the cells
same,increase of expression of Ubiad1 measured by qPCR,[2],+102%
same,resistance to lipid peroxidation,[3],more resistant
same,increase of expression of Ubiad1 measured by immunoblotting,[4],+53%
same,resistance to ROS accumulation,[5],more resistant to ROS accumulation
